In paper PMC7129073 (Clinical Microbiology and Infection, 2015):
Values after ≈ are worked out from the molar mass of the structure shown.

Tests used:
[1] = test system: Streptococcus pneumoniae; experiment: Susceptibility testing; assay type: cell-based; conditions: 99 isolates tested
[2] = test system: ‘wild type’ Staphylococcus epidermidis skin isolates; experiment: NCCLS disk diffusion; assay type: cell-based; conditions: 52 isolates
[3] = test system: viridans group streptococci (VGS); experiment: MIC; assay type: cell-based
[4] = test system: S. pneumoniae; assay type: cell-based, Streptococcus pneumoniae
[5] = test system: Moraxella catarrhalis (MC); experiment: MIC; assay type: cell-based; conditions: 2497 isolates
[6] = test system: S. pneumoniae; experiment: Susceptibility of bacteraemia isolates of children, Taiwan; assay type: cell-based, Streptococcus pneumoniae; conditions: 79 isolates
[7] = test system: N.gonorrhoeae; experiment: microbe, parasite or virus in culture; assay type: cell-based; conditions: Neisseria gonorrhoeae
[8] = test system: Streptococcus pyogenes (SPY); experiment: MIC; assay type: cell-based; conditions: 2522 isolates
[9] = test system: S. pneumoniae; experiment: E-test MIC, children with URTI, Brazil; assay type: cell-based, Streptococcus pneumoniae
[10] = test system: S. pneumoniae; experiment: PROTEKT Italy, NCCLS microdilution; assay type: cell-based, Streptococcus pneumoniae
[11] = test system: S. pneumoniae; experiment: Broth microdilution; assay type: cell-based, Streptococcus pneumoniae
[12] = test system: F. necrophorum; experiment: E-test, 13 clinical isolates; assay type: cell-based, Fusobacterium necrophorum
[13] = test system: Streptococcus pneumoniae; experiment: BSAC agar dilution, lower respiratory isolates UK and Ireland; assay type: cell-based
[14] = test system: S. pneumoniae (Sp); experiment: Broth microdilution, point prevalence study Spain; assay type: cell-based, Streptococcus pneumoniae; conditions: 360 isolates, February 2004; penicillin I+R
[15] = test system: S. pneumoniae; experiment: MIC of invasive strains, Saint George Hospital 2001–2004; assay type: cell-based, Streptococcus pneumoniae
[16] = test system: PRSP; experiment: Broth microdilution; assay type: cell-based, Streptococcus pneumoniae
[17] = test system: S. pneumoniae; experiment: Broth microdilution; assay type: cell-based, Streptococcus pneumoniae; conditions: 275 isolates
[18] = test system: H.influenzae; experiment: Broth microdilution; assay type: cell-based, Haemophilus influenzae; conditions: Haemophilus influenzae
[19] = test system: viridans group streptococci (VgS) and Streptococcus bovis; experiment: Broth microdilution and disk diffusion; assay type: cell-based
[20] = test system: Streptococcus pneumoniae (SPN); experiment: MIC; assay type: cell-based; conditions: 8378 isolates
[21] = test system: S. pneumoniae (SPN); experiment: SENTRY Brazil, NCCLS broth microdilution; assay type: cell-based, Streptococcus pneumoniae
[22] = test system: S.pneumoniae; experiment: Italian survey of severe infections 2003, MIC; assay type: cell-based, Streptococcus pneumoniae
[23] = test system: foreign body infection Staphylococcus epidermidis strains; experiment: NCCLS disk diffusion; assay type: cell-based; conditions: 86 strains
[24] = test system: Haemophilus influenzae (HI); experiment: MIC; assay type: cell-based; conditions: 7489 isolates
[25] = test system: ERSP; experiment: Broth microdilution; assay type: cell-based, Streptococcus pneumoniae
[26] = test system: S. aureus; experiment: NCCLS broth microdilution MIC, 50 mg/L calcium; assay type: cell-based
[27] = test system: coagulase-negative Staphylococci; experiment: NCCLS broth microdilution MIC, 50 mg/L calcium; assay type: cell-based
[28] = test system: CA-MRSA; experiment: MIC, MBC; assay type: cell-based, Staphylococcus aureus
[29] = test system: E. faecium; experiment: NCCLS broth microdilution MIC, 50 mg/L calcium; assay type: cell-based
[30] = test system: E. faecalis; experiment: NCCLS broth microdilution MIC, 50 mg/L calcium; assay type: cell-based
[31] = test system: MDR-MRSA; experiment: MIC, MBC; assay type: cell-based, Staphylococcus aureus; conditions: time kill, two strains
[32] = test system: beta-haemolytic Streptococcus spp.; experiment: NCCLS broth microdilution MIC, 50 mg/L calcium; assay type: cell-based
[33] = test system: MRSA; experiment: Disk diffusion; assay type: cell-based, Staphylococcus aureus; conditions: 200 isolates
[34] = test system: Enterococcus spp.; experiment: NCCLS broth microdilution MIC, 50 mg/L calcium; assay type: cell-based
[35] = test system: viridans group Streptococcus spp.; experiment: NCCLS broth microdilution MIC, 50 mg/L calcium; assay type: cell-based
[36] = NCCLS breakpoints (Amox/Clav 2/1 mcg/mL)

CC1(C)S[C@@H]2[C@H](NC(=O)Cc3ccccc3)C(=O)N2[C@H]1C(=O)O [penicillin]
resistant isolates [1]: 14.1%
% resistant [2]: 46.2%
MIC50 [3]: 0.06 µg/mL (≈ 0.179 µM)
MIC90 [3]: 0.5 µg/mL (≈ 1.5 µM)
MIC range of isolates with reduced susceptibility [3]: 0.25 to 4 µg/mL
isolates with reduced susceptibility ([3]; 107 strains): 18.7%
intermediate susceptible [4]: 30%
MIC90 [5]: 8 ig/ml
nonsusceptible isolates (MIC > 0.1 μg/mL) [6]: 82%
MIC ([7]; strain 76mu6): 16 µg/mL (≈ 47.8 µM)
MIC ([7]; strain 76mu10): 16 µg/mL (≈ 47.8 µM)
MIC ([7]; strain 92mu6): 0.5 µg/mL (≈ 1.5 µM)
MIC ([7]; strain 92mu13): 0.5 µg/mL (≈ 1.5 µM)
MIC90 [8]: 0.03 ig/ml
intermediate (I) ([9]; 137 isolates): 23.4%
resistant (R) ([9]; 137 isolates): 10.2%
susceptible (S) ([9]; 137 isolates): 66.4%
MIC90 ([9]; Streptococcus pneumoniae): 1.5 µg/mL (≈ 4.49 µM)
total resistance ([10]; year 1: 2002): 23.7%
total resistance ([10]; year 2: 2003): 23.4%
%Sus [11, 36]: 60.6%
MIC90 ([11]; Streptococcus pneumoniae): 2 µg/mL (≈ 5.98 µM)
MIC range [12]: 4 to 256000 ng/mL
MIC50 ([12]; Fusobacterium necrophorum): 0.016 µg/mL (≈ 0.0478 µM)
MIC90 ([12]; Fusobacterium necrophorum): > 32 µg/mL
resistance (PEN-NS >0.06, TET-R >1, ERY-R >0.5, CIP-R >2 mg/L) ([13]; Ireland 1999–2000, N 66): 40.9%
resistance (same cut-offs) ([13]; Ireland 2000–2001, N 59): 42.4%
resistance (same cut-offs) ([13]; Ireland 2001–2002, N 68): 36.8%
resistance (same cut-offs) ([13]; Ireland 2002–2003, N 89): 24.7%
resistance (same cut-offs) ([13]; Ireland 2003–2004, N 76): 14.5%
resistance (same cut-offs) ([13]; UK 1999–2000, N 595): 7.4%
resistance (same cut-offs) ([13]; UK 2000–2001, N 608): 7.1%
resistance (same cut-offs) ([13]; UK 2001–2002, N 631): 4.6%
resistance (same cut-offs) ([13]; UK 2002–2003, N 683): 6.4%
resistance (same cut-offs) ([13]; UK 2003–2004, N 709): 5.9%
resistance [14]: 42%
% S [15]: 46%
%R [15]: 54%
%Sus [16, 36]: 0.0%
MIC90 ([16]; Streptococcus pneumoniae, PRSP): 4 µg/mL (≈ 12 µM)
Susceptibility [17]: 83.6%
MIC90 [18]: > 16 µg/mL
% S, range between species ([19]; nine species): 65.5–98.1%
MIC90 [20]: 1 ig/ml
% R (> 2 mg/L) to PEN [21]; 1998: 3%
% S [21]; 1998: 84%
% R (> 2 mg/L) to PEN [21]; 1999: 6%
% S [21]; 1999: 83%
% R (> 2 mg/L) to PEN [21]; 2000: 5%
% S [21]; 2000: 75%
% R (> 2 mg/L) to PEN [21]; 2001: 8%
% S [21]; 2001: 82%
% R (> 2 mg/L) to PEN [21]; 2002: 8%
% S [21]; 2002: 78%
% R (> 2 mg/L) to PEN [21]; 2003: 10%
% S [21]; 2003: 72%
resistance [22]: 20.0%
% resistant [23]: More than 30%
MIC90 [24]: 8 ig/ml
%Sus [25, 36]: 18.6%
MIC90 ([25]; Streptococcus pneumoniae): 4 µg/mL (≈ 12 µM)

CCCCCCCCCC(=O)N[C@@H](Cc1c[nH]c2ccccc12)C(=O)N[C@H](CC(N)=O)C(=O)N[C@@H](CC(=O)O)C(=O)N[C@@H]1C(=O)NCC(=O)N[C@@H](CCCN)C(=O)N[C@@H](CC(=O)O)C(=O)N[C@H](C)C(=O)N[C@@H](CC(=O)O)C(=O)NCC(=O)N[C@H](CO)C(=O)N[C@@H]([C@H](C)CC(=O)O)C(=O)N[C@@H](CC(=O)c2ccccc2N)C(=O)O[C@@H]1C [daptomycin]
% S ([26]; OXA-R): 99.0%
MIC range ([26]; OXA-R): 0.12 to 2 mg/L
% S ([26]; OXA-S): 99.9%
MIC range ([26]; OXA-S): ≤0.06 to 2 mg/L
% S ([27]; OXA-R): 100.0%
MIC range ([27]; OXA-R): ≤0.06 to 1 mg/L
% S ([27]; OXA-S): 100.0%
MIC range ([27]; OXA-S): 0.12 to 1 mg/L
time to 99.9% kill, as early as ([28]; against all strains (CA-MRSA and MDR-MRSA)): 4 h
Δ Log10 CFU/ml ([28]; time kill, two strains): −3.88 Log10 CFU/ml
% S ([29]; VAN-G (77)): 97.4%
MIC range ([29]; VAN-G (77)): 1—8 mg/L
% S ([29]; VAN-R): 100.0%
MIC range ([29]; VAN-R): 1—4 mg/L
% S [30]: 100.0%
MIC range [30]: ≤0.06 to 4 mg/L
Δ Log10 CFU/ml [31]: −4.12 Log10 CFU/ml
% S [32]: 100.0%
MIC range [32]: ≤0.06 to 0.5 mg/L
sensitivity [33]: All isolates were sensitive
MIC90, range between species [19]: 0.06 − 1 mg/L
Susceptible isolates ([19]; 915 isolates, daptomycin breakpoint ≤ 1 mg/L): 99.9%
% S [34]: 100.0%
MIC range [34]: 0.5 to 4 mg/L
MIC range [35]: ≤0.06 to 2 mg/L
